For data set [1], the system named is binding site 2 of the sodium channel. Nature of the data set: BTX binding, sodium channel. Conditions: 10 μM, percentage inhibition, [3H]-batrachotoxin A20 α-benzoate 10 nM, rat cerebral cortex synaptosomes. In a few lines: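 Rat cerebral cortex synaptosomes incubated with 10 nM [^3H]-batrachotoxin A20 α-benzoate at 37° C for 120 min; non-specific binding defined with 0.3 mM veratridine. IC50 values converted to Ki via Cheng-Prusoff; means±SEM of 3 independent series run in triplicate.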

Data set [2] deals with phenylalkylamine binding site of the L-type calcium channel. Kind of data set: Verapamil binding, L calcium channel. The conditions noted are these: 10 μM, percentage inhibition, N-methyl-[3H]-verapamil 2 nM. On the procedure: Binding Investigations in the L Calcium Channel
Phenylalkylamine Binding Site (Verapamil Binding)
The biological material (ion channel particles) was prepared on the basis of the publication of Reynolds, Gould and Snyder (I. J. Reynolds, R. J. Gould and S. H. Snyder (1983) […]. 95, 319-321).
N-methyl-[^3H]-verapamil (2 nM in the assay) was used as radioligand. The radioactivity that is measured in the presence of non-radioactive verapamil (10^−4 M in the assay) is defined as non-specific binding. The material was incubated at 25° C. for 45 minutes. The material was then filtered using a Whatman GF/B filter, followed by washing. The radioactivity remaining on the filter (ion channel binding) was measured using a β-counter.
For this purpose IC50 values are obtained, which can be converted to inhibitor constants (Ki) according to the “Cheng-Prusoff equation” (Y. C. Clieng and W. H. Prusoff (1973) Biochem. Pharmacol. 22, 3099-3108). The IC50 values were obtained by means of the computer program “Figure P” (version 6.0, Biosoft, Cambridge, England). Km values were calculated according to Lineweaver and Burk (H. Lineweaver and D. Burk (1934) J. Am. Chem. Soc. 56, 658-666). The “Ligand” computer program (version 4, Biosoft, England) was used to obtain Ken values.

Data set [3] has as its system phenylquinone-induced writhing reaction. Kind of data set: phenylquinone-induced writhing test in mice. It counts as in vivo. Conditions: Mus musculus, iv, 10 min, male NMRI mice, 10 mg/kg intravenously, phenylquinone i.p. 10 minutes later. The method in brief:
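Male NMRI mice (25–30 g, n=10/group) received test substance i.v. at 10 mg/kg, then 0.02% phenylquinone i.p. 10 min later. Writhing reactions were counted 5–20 min after phenylquinone; % inhibition is relative to saline-treated controls.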

Data set [4] addresses T1, NA transporter (Rattus norvegicus, UniProt Q63380).
T1 construct: synaptosomes are isolated fresh from rat brains; from tissue; host or cells: rat hypothalamus synaptosomes (P2 fraction)
Kind of data set: synaptosomal noradrenaline uptake inhibition (NA uptake inhibition). The data set is classed as biochemical. Conditions: read-out: NA Uptake Inhibition at 1 μM, 1 μM in the assay, synaptosomes from rat hypothalamus. The method in brief: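 IC50 values converted to Ki via Cheng-Prusoff; Km by Lineweaver-Burk. N=4 independent series, each in triplicate, mean ± SEM.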

The subject of data set [5] is benzothiazepine binding site of the L-type calcium channel. Kind of data set: Diltiazem binding, L calcium channel. Conditions: 10 μM, percentage inhibition, [3H]-cis-(+)-diltiazem 5 nM, rat cerebral cortex membranes. The arrangement: species or system rat. The method in brief: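 Rat cerebral cortex membranes incubated with [^3H]-cis-(+)-diltiazem (5 nM) for 20 min at 25° C; nonspecific binding defined with (±)-diltiazem (10^−6 M). Bound ligand collected by GF/B filtration and counted; IC50 values converted to Ki by Cheng-Prusoff.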

T1 sequence (Q63380 1-617): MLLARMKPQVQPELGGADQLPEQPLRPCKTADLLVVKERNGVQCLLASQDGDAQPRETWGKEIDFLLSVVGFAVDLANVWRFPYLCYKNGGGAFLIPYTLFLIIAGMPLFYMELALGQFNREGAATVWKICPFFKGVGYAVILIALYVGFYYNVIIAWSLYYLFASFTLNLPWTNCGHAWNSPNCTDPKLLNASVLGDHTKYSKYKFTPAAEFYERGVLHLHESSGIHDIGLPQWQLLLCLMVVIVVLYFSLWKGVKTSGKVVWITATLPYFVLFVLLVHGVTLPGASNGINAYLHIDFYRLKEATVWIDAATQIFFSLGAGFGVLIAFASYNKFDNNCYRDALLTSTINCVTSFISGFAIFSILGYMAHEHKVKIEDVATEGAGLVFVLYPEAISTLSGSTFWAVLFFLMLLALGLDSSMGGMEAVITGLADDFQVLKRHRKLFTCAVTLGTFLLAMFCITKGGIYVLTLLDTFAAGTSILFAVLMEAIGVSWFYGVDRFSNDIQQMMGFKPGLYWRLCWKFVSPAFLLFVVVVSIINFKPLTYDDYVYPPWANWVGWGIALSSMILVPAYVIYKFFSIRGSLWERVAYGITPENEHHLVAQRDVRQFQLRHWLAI

With `Cc1ccc(C2(O)CCCCC2C(c2ccccc2)N(C)C)cc1.Cl` (centres unmarked) [Example 8, 2-(dimethylaminophenylmethyl)-1-p-tolylcyclohexanol, hydrochloride], the melting point was in the range of 168 to 169 °C. Moreover, the “BTX Binding at 10 μM” value in data set [1] is recorded as 88%. Further, the “Verapamil Binding at 10 μM” value in data set [2] stood at 56%. This molecule had an inhibition in vivo at 10 mg/kg in data set [3] of 81%. The inhibition at 1 µM in data set [4] came out at 50%. In addition, the “Diltiazem Binding at 10 μM” value in data set [5] came to 68%.
Take `CN(C)C(c1ccccc1)C1CCCCC1(O)Cc1ccccc1.Cl` (centres unmarked) [Example 14, 1-benzyl-2-(dimethylaminophenylmethyl)cyclohexanol, hydrochloride]: the melting point fell in the range of 223 to 225 °C. For the same molecule, the “BTX Binding at 10 μM” value in data set [1] is given as 89%. Besides, the inhibition in vivo at 10 mg/kg in data set [3] was 70%. Besides, the inhibition at 1 µM in data set [4] stood at 100%. Further, the “Diltiazem Binding at 10 μM” value in data set [5] is on record as 88%.
Molecule `CN(C)C(c1ccccc1)C1CCCCC1(O)c1ccc(F)c(C(F)(F)F)c1.Cl` (centres unmarked) [Example 15, 2-(dimethylaminophenylmethyl)-1-(4-fluoro-3-trifluoromethylphenyl)cyclohexanol, hydrochloride] returned a melting point of 234 to 237 °C. In addition, the “BTX Binding at 10 μM” value in data set [1] was 94%. Moreover, the “Verapamil Binding at 10 μM” value in data set [2] turned out to be 87%. For the same molecule, testing at 10 mg/kg in data set [3] gave an inhibition in vivo of 73%. Further, in data set [4], the inhibition at 1 µM is 44%. For the same molecule, the “Diltiazem Binding at 10 μM” value in data set [5] amounted to 97%.
Take `COc1cccc(CC2(O)CCCCC2C(c2ccc(C(F)(F)F)cc2)N(C)C)c1.Cl` (centres unmarked) [Example 22, 2-[dimethylamino-(4-trifluoromethylphenyl)methyl]-1-(3-methoxybenzyl)cyclohexanol, hydrochloride]: the “BTX Binding at 10 μM” value in data set [1] was 98%. Also, the “Verapamil Binding at 10 μM” value in data set [2] is 80%. Further, 10 mg/kg produced 68% inhibition in vivo in data set [3]. Moreover, the inhibition at 1 µM in data set [4] is 91%. Moreover, the “Diltiazem Binding at 10 μM” value in data set [5] is 72%.
The molecule `CN(C)C(c1ccccc1)C1CCCCC1(O)Cc1ccc(C(C)(C)C)cc1.Cl` (centres unmarked) [Example 28, 1-(4-tert.-butylbenzyl)-2-(dimethylaminophenylmethyl)cyclohexanol, hydrochloride] registered a melting point of 227 to 229 °C. Moreover, the “BTX Binding at 10 μM” value in data set [1] is listed as 100%. The molecule further displayed an inhibition in vivo at 10 mg/kg in data set [3] of 100%. For the same molecule, in data set [4], the inhibition at 1 µM worked out at 63%. The “Diltiazem Binding at 10 μM” value in data set [5] was determined as 89%.
For `CN(C)C(c1ccccc1)C1CCCCC1(O)Cc1cccc(F)c1.Cl` (centres unmarked) [Example 29, 2-(dimethylaminophenylmethyl)-1-(3-fluorobenzyl)cyclohexanol, hydrochloride], the melting point was 146 to 147 °C. For the same molecule, the “BTX Binding at 10 μM” value in data set [1] is listed as 88%. Also, in data set [3], the inhibition in vivo at 10 mg/kg was found to be 96%. Moreover, in data set [4], the inhibition at 1 µM worked out at 96%. Moreover, the “Diltiazem Binding at 10 μM” value in data set [5] came to 72%.
